Test system: primary cultured cells of myotubes derived from the DMRV model mice
Test: Amount of NeuAc by HPLC in myotubes from DMRV model mice
Assay type: cell-based
Details: 100 or 500 μm Ac5GlcNAcol together with 10 mM ManNAc, three days
Experimental: The skeletal muscle tissues collected from the DMRV human patients or the model mice were lightly washed with PBS or Hank's balanced saline and were treated with 0.25% trypsin for 5 minutes. The tissues were finely cut into several millimeters with ophthalmic scissors, were digested with 0.4% collagenase II/0.25% trypsin at 37° C. for 30 minutes, and were left still to collect supernatant. The precipitate was again treated with the enzyme liquid. After being left still, the precipitate was well suspended in a DMEM-Ham's F-12 culture medium. The tissue suspension was passed through a nylon mesh to remove the tissues. The washings and the supernatant were centrifuged to collect cells. […]
In the case that the sample was cultured cells, the cells were washed with PBS three times, and 400 p. […] The fluorescent derivative thus prepared was analyzed with HPLC (JASCO Corp.) using 0.05 to 5 nmol/μl Neu5Ac and Neu5Gc standards. The amount of protein from the tissue was measured with a Bio-Rad Protein Assay kit (Bio-Rad Laboratories).
ManNAc or Ac5GlcNAcol was added to the culture media of primary cultured cells of myotubes derived from the DMRV model mice such that the final concentration of ManNAc was 10 mM and the final concentration of Ac5GlcNAcol was […]. […] The amount of NeuAc in the cultured cells was measured by the HPLC method described above (N=3).

Structure (SMILES): CC(=O)N[C@@H](COC(C)=O)[C@@H](OC(C)=O)[C@H](OC(C)=O)[C@@H](COC(C)=O)OC(C)=O [Ac5GlcNAcol, Penta-O-acetyl N-acetylglucosaminitol]
- amount of NeuAc in the myotubes: further increased the amount of NeuAc
